Test results taken from the supplement of paper PMC12076712.

How the values were obtained:
Assay in all cases: pIC50, kinobeads binding competition
UniProt Q16584 = target: UniProt Q16584
In short: (§1)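 pIC50 was obtained by fitting fold changes against vehicle to logistic dose-response curves with the R drc package, using biological duplicates. Kinobeads-bound proteins were digested and measured by TMT10 LC-MS/MS. Before this, either living Jurkat cells received nine compound concentrations (top 30 μM, 1:4 steps) for 60 min at 37 °C prior to lysis, or Jurkat lysate or a 1:1:1:1 HEK293/K-562/HepG2/placenta lysate mix received nine concentrations (top 30 μM, 1:5 steps) for 60 min at 4 °C.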

UniProt O95382 = target: T1, UniProt O95382; conditions: cell material: Lysate mix
T1 sequence (whole entry): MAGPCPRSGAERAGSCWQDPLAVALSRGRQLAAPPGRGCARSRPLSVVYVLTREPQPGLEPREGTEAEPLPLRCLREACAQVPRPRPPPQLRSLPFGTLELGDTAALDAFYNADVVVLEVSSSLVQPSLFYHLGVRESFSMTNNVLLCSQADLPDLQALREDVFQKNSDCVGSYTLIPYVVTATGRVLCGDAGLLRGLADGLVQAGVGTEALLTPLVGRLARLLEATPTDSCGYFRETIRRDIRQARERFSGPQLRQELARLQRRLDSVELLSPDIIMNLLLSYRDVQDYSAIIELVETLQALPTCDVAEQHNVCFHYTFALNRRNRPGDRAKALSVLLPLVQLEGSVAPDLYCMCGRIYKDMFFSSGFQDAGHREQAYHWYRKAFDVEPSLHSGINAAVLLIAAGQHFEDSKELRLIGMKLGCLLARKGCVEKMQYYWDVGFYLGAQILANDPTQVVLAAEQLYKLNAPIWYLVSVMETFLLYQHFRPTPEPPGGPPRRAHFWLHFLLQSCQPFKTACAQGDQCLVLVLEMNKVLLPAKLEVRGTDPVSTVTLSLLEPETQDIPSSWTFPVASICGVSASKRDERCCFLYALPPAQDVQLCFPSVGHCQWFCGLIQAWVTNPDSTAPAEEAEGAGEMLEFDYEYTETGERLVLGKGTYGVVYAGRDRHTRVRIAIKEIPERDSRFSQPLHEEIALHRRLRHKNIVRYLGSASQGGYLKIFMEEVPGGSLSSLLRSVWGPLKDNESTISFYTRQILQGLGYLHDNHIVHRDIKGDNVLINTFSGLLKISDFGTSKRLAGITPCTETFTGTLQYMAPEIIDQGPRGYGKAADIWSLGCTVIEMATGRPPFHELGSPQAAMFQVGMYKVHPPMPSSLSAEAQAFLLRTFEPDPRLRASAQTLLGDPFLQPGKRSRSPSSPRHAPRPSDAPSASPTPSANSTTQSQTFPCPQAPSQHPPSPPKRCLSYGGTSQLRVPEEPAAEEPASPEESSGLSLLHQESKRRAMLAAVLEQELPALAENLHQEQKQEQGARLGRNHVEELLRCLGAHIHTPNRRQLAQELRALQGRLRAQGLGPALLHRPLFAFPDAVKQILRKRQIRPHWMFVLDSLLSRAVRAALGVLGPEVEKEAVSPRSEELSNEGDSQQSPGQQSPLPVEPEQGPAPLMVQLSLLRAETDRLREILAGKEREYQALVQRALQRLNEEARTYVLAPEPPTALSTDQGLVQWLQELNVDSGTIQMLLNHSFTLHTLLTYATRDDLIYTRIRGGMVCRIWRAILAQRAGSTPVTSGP
In short: as §1

LRRK2 = LRRK2 (UniProt Q5S007); conditions: cell material: Lysate mix
In short: as §1

STK35 = STK35 (UniProt Q8TDR2)
In short: as §1

MERTK = target: T2, MERTK (UniProt Q12866)
T2 sequence (whole entry): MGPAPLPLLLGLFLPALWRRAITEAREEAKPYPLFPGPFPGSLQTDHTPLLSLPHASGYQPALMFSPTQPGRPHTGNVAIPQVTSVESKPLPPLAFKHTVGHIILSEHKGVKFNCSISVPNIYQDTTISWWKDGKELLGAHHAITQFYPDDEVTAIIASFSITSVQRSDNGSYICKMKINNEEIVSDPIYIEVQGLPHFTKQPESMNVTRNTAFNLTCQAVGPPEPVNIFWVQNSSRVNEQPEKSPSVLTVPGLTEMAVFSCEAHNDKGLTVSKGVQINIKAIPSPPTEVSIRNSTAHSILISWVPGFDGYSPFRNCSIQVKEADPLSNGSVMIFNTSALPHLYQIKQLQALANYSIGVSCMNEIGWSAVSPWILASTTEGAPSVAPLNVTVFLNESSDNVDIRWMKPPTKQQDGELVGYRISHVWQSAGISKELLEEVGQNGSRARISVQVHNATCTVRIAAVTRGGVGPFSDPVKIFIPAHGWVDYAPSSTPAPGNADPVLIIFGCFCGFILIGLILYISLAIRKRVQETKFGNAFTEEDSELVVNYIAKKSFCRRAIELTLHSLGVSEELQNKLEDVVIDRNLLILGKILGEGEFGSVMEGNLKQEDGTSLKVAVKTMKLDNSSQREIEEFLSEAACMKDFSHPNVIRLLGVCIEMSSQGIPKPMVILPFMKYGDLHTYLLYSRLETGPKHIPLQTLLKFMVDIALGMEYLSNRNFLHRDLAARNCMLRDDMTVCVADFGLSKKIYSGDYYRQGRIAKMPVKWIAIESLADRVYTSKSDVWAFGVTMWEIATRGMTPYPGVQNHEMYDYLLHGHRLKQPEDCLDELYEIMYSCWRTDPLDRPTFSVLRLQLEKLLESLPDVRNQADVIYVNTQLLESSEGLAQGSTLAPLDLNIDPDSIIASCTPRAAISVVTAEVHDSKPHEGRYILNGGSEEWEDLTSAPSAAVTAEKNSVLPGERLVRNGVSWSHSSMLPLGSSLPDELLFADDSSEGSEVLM
In short: as §1

UniProt Q9Y2K2 = target: UniProt Q9Y2K2
In short: as §1

UniProt Q9Y2K2, sequence (Q9Y2K2 whole entry, looked up): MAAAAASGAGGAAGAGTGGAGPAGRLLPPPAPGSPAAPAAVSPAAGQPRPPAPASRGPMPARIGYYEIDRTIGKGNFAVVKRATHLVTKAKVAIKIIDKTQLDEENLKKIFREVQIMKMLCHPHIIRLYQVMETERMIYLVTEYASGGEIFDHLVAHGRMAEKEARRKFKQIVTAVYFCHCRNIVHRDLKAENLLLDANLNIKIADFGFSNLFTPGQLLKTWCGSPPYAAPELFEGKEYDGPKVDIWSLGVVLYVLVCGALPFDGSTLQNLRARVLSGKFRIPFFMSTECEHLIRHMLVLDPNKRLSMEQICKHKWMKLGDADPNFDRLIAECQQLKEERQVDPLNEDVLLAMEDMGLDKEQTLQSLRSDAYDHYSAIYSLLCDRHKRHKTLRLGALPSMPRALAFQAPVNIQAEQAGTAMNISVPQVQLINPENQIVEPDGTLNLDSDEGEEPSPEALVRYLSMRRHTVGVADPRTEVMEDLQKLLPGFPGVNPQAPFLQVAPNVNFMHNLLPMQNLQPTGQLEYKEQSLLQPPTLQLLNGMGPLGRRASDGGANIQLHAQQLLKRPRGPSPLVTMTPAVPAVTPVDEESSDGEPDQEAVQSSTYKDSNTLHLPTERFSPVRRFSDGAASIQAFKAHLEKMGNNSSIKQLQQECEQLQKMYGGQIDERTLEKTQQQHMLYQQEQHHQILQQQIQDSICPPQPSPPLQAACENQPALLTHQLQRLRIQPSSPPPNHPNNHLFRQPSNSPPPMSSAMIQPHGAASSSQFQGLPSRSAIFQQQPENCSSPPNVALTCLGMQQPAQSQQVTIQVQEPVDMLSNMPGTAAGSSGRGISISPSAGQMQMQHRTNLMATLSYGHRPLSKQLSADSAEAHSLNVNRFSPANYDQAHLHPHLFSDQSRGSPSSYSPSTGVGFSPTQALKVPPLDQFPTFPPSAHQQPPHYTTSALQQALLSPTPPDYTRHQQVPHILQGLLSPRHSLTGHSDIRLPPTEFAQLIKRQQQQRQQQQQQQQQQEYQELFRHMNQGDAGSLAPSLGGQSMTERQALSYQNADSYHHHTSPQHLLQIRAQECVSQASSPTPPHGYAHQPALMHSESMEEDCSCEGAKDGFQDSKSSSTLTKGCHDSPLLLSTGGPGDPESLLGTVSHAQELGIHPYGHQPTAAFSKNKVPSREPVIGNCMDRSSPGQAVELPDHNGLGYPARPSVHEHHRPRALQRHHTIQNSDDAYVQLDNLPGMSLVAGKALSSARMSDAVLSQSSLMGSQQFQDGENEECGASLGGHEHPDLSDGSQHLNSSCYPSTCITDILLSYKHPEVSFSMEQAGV
UniProt Q16584, sequence (Q16584 whole entry, looked up): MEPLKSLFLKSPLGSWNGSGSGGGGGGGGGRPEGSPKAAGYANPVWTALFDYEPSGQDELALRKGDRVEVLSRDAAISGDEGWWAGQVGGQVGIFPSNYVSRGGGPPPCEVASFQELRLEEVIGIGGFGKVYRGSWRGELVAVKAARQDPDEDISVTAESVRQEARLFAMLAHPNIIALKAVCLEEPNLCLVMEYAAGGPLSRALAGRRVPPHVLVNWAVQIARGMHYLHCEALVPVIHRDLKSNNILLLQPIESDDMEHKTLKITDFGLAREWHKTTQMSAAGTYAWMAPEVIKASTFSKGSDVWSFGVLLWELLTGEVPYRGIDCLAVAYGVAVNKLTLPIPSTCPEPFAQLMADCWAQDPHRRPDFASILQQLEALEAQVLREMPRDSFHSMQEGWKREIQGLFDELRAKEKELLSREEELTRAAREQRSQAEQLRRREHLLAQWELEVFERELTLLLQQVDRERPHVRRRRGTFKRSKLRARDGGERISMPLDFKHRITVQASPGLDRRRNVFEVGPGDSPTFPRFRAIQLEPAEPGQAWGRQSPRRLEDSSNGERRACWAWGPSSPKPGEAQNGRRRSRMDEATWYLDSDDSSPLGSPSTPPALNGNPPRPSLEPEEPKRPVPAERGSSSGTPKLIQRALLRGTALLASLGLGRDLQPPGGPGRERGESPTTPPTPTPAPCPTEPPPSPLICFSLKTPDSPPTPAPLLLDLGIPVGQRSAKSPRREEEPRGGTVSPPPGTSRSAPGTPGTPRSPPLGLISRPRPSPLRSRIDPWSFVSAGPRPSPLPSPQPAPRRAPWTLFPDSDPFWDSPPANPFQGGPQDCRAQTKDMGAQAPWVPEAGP
STK35, sequence (Q8TDR2 whole entry): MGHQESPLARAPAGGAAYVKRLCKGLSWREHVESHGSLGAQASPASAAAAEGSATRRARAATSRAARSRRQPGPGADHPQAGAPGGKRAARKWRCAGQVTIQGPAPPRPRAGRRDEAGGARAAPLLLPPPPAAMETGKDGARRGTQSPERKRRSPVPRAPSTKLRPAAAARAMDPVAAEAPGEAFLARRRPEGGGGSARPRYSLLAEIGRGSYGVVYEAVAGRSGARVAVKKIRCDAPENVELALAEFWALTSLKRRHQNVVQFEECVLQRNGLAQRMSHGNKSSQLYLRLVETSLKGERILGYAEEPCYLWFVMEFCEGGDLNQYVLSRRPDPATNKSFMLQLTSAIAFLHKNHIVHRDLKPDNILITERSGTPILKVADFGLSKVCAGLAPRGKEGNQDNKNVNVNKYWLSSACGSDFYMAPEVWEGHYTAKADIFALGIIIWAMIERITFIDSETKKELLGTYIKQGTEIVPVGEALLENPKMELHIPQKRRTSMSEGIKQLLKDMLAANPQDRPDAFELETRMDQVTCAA

C#CCNC(=O)c1cc(Nc2cc(C3CC3)[nH]n2)nc(N2CCN(Cc3ccc(S(=O)(=O)F)cc3)CC2)n1
pIC50 (UniProt Q16584; cell material: Jurkat cells): 6.26 | pIC50 (UniProt Q16584; cell material: Jurkat lysate): 5.22 | pIC50 (UniProt Q16584; cell material: Lysate mix): 5.64 | pIC50 (UniProt O95382): < 4.52 | pIC50 (LRRK2): 5.64 | pIC50 (STK35; cell material: Jurkat cells): 6.96 | pIC50 (STK35; cell material: Jurkat lysate): 6.1 | pIC50 (STK35; cell material: Lysate mix): 6.96 | pIC50 (MERTK; cell material: Jurkat cells): 6.29 | pIC50 (MERTK; cell material: Jurkat lysate): < 4.52 | pIC50 (MERTK; cell material: Lysate mix): 4.84 | pIC50 (UniProt Q9Y2K2; cell material: Jurkat lysate): < 4.52 | pIC50 (UniProt Q9Y2K2; cell material: Lysate mix): < 4.52

C#CCNC(=O)c1cc(Nc2cc(C)[nH]n2)nc(N2CCN(Cc3ccc(S(=O)(=O)F)cc3)CC2)n1
pIC50 (UniProt Q16584; cell material: Lysate mix): < 4.52 | pIC50 (UniProt O95382): 4.63 | pIC50 (LRRK2): 5.27 | pIC50 (STK35; cell material: Lysate mix): 6.01 | pIC50 (MERTK; cell material: Lysate mix): < 4.52 | pIC50 (UniProt Q9Y2K2; cell material: Lysate mix): < 4.52

Cc1cc(Nc2cc(C(=O)NCCNC(=O)OC3CC/C=C/CCC3)nc(N3CCN(Cc4ccc(S(=O)(=O)F)cc4)CC3)n2)n[nH]1 (stereo unspecified)
pIC50 (UniProt Q16584; cell material: Lysate mix): < 4.52 | pIC50 (UniProt O95382): < 4.52 | pIC50 (LRRK2): < 4.52 | pIC50 (STK35; cell material: Lysate mix): 4.91 | pIC50 (MERTK; cell material: Lysate mix): < 4.52 | pIC50 (UniProt Q9Y2K2; cell material: Lysate mix): < 4.52

O=C(NCCNC(=O)c1cc(Nc2cc(C3CC3)[nH]n2)nc(N2CCN(Cc3ccc(S(=O)(=O)F)cc3)CC2)n1)OC1CC/C=C/CCC1 (stereo unspecified)
pIC50 (UniProt Q16584; cell material: Jurkat cells): 5.96 | pIC50 (UniProt Q16584; cell material: Jurkat lysate): < 4.52 | pIC50 (UniProt Q16584; cell material: Lysate mix): < 4.52 | pIC50 (UniProt O95382): < 4.52 | pIC50 (LRRK2): < 4.52 | pIC50 (STK35; cell material: Jurkat cells): 6.88 | pIC50 (STK35; cell material: Jurkat lysate): 5.19 | pIC50 (STK35; cell material: Lysate mix): 5.2 | pIC50 (MERTK; cell material: Jurkat cells): 6.04 | pIC50 (MERTK; cell material: Jurkat lysate): < 4.52 | pIC50 (MERTK; cell material: Lysate mix): < 4.52 | pIC50 (UniProt Q9Y2K2; cell material: Jurkat cells): < 4.52 | pIC50 (UniProt Q9Y2K2; cell material: Jurkat lysate): < 4.52 | pIC50 (UniProt Q9Y2K2; cell material: Lysate mix): < 4.52

CCNC(=O)c1cc(Nc2cc(C)[nH]n2)nc(N2CCN(Cc3ccc(S(=O)(=O)F)cc3)CC2)n1
pIC50 (UniProt Q16584; cell material: Lysate mix): < 4.52 | pIC50 (UniProt O95382): 4.66 | pIC50 (LRRK2): 5.28 | pIC50 (STK35; cell material: Lysate mix): 6.51 | pIC50 (MERTK; cell material: Lysate mix): < 4.52 | pIC50 (UniProt Q9Y2K2; cell material: Lysate mix): < 4.52

CCNC(=O)c1cc(Nc2cc(C3CC3)[nH]n2)nc(N2CCN(Cc3ccc(S(=O)(=O)F)cc3)CC2)n1
pIC50 (UniProt Q16584; cell material: Lysate mix): 5.29 | pIC50 (UniProt O95382): < 4.52 | pIC50 (LRRK2): 5.46 | pIC50 (STK35; cell material: Lysate mix): 6.58 | pIC50 (MERTK; cell material: Lysate mix): 4.94 | pIC50 (UniProt Q9Y2K2; cell material: Lysate mix): < 4.52
